In BindingDB's records for doi:10.1016/j.bmcl.2010.07.082 (Ligand Pharmaceuticals, 2010):

Assay: Antagonist activity at CCR1 in human THP1 cells assessed as inhibition of CCL3-induced chemotaxis after 3 hrs

Structure (SMILES)	IC50
O=C(Nc1ccc(C(F)(F)F)cc1)N1CCC[C@@H]1c1nncn1Cc1ccc(Cl)cc1 [(R)-2-(4-(4-chlorobenzyl)-4H-1,2,4-triazol-3-yl)-N-(4-(trifluoromethyl)phenyl)pyrrolidine-1-carboxamide]	4 nM
O=C(Nc1ccc(C(F)(F)F)cc1)N1CCC[C@@H]1c1nnnn1Cc1ccc(Cl)cc1 [(R)-2-(1-(4-chlorobenzyl)-1H-tetrazol-5-yl)-N-(4-(trifluoromethyl)phenyl)pyrrolidine-1-carboxamide]	6.5 nM
O=C(Nc1ccc(C(F)(F)F)cc1)N1CCCC1c1nccn1Cc1ccc(Cl)cc1 (stereo not given) [2-(1-(4-chlorobenzyl)-1H-imidazol-2-yl)-N-(4-(trifluoromethyl)phenyl)pyrrolidine-1-carboxamide]	16 nM

More lines, in order of falling IC50, values ahead:

IC50	Structure (SMILES)
22 nM	O=C(Nc1ccc(C(F)(F)F)cc1)N1CCC[C@@H]1c1ncnn1Cc1ccc(Cl)cc1 [(R)-2-(1-(4-chlorobenzyl)-1H-1,2,4-triazol-5-yl)-N-(4-(trifluoromethyl)phenyl)pyrrolidine-1-carboxamide]
2.9 nM	Cc1nnc([C@H]2CCCN2C(=O)Nc2ccc(C(F)(F)F)cc2)n1Cc1ccc(Cl)cc1 [(R)-2-(4-(4-chlorobenzyl)-5-methyl-4H-1,2,4-triazol-3-yl)-N-(4-(trifluoromethyl)phenyl)pyrrolidine-1-carboxamide]
